Measured values reported in patent US5319099A, “3-benzylidene-1-carbamoyl-2-pyrrolidone compounds useful as antiinflammatory agents” (Shionogi Seiyaku Kabushiki Kaisha, priority 1991, dated 1994).
Like-named read-outs stand apart in the source and are kept apart here.

Assays:
[1] = tested on: IL-1 production in THP-1 cells; experiment: Inhibitory Activity on IL-1 Production caused by The Stimulation of LPS in THP-1 Cells; format: cell-based; settings: Homo sapiens, read-out: IC50 THP-1 IL-1
Procedure: Serial dilutions (100 μl each) of a test compound and LPS (final concentration: 10 μg/ml) were further added to each well and the plate was kept at 37° C. for 24 hours. Then, the supernatant was collected from each well and centrifuged (3000 rpm×10 min.). […]

[2] = tested on: LTB4 production from rat peritoneal cells (Rat PEC); experiment: Inhibitory Activity on LTB4 Production from Rat Peritoneal Cells; format: cell-based, rat (Jcl-SD); settings: 0.25 h, Ca-ionophore A23187 1 μM, 15 min, RIA
Procedure: Inhibitory Activity on LTB4 Production from Rat Peritoneal Cells
To each male Jcl-SD rat (300-350 g weight) was intraperitoneally administered 10 ml of Hanks' solution containing 0.1% bovine serum albumin (hereinafter referred to as BSA) and 25 U/ml of heparin. Then the ascites were collected and centrifuged (1500 rpm×5 min., at 4° C.). The resulting cell fraction (precipitation) was suspended and adjusted at […] with Hanks' solution containing 0.1% BSA. The thus obtained suspension (800 μl, 8×10^5 cells) was dispensed into polypropylene tubes and incubated at 37° C. 10 min, and successively for 10 min. after addition of serial dilutions (100 μl each) of a test sample. Next, 100 μl of Ca-ionophore A23187 (final concentration: 1 μM) was added to the resulting suspension and allowed to stand for 15 min, then the mixture was ice-cooled to terminate the reaction. The reaction mixtures were centrifuged (3000 rpm×5 min., at 4° C.) to give supernatants, which were collected and stored at -80° C. until LTB4 assay. After thawed, the LTB4 assay was performed by RIA using ^3 H--LTB4.

[3] = tested on: PGE2 production from rat synovia cells (Rat SVC); experiment: Inhibitory Activity on PGE2 Production from Rat Synovia Cells; format: cell-based, rat (LEW/Crj); settings: human IL-1 β 30 U/ml, 15 hours, RIA
Procedure: Inhibitory Activity on PGE2 Production from Rat Synovia Cells
LEW/Crj rats (male, 300-350 g weight) were subjected to synovectomy. The isolated synovia cells were subcultivated under a certain condition up to a well amount of cells for the experiment. The cells were dispensed to each well of a 96-well microtiter plate at a concentration of 4×10^3 /160 μl/well and then cultivated for 72 hours in a CO2 incubator. Serial dilutions (20 μl each) of a test compound and human IL-1 β(final concentration: 30 U/ml) were added to the wells and incubated for 15 hours in a Co2 incubator. After the incubation, the supernatant was collected from each well and stored at -80° C. until PGE2 assay. […]

[4] = tested on: Carrageenin-Induced Paw Edema of Rat; experiment: Inhibitory Activity on Carrageenin-Induced Paw-Edema of Rat; format: in vivo, rat (LEW/Crj); settings: oral 1 hour before carrageenin, inhibitory rate 3 or 4 hours after carrageenin, read-out: ED30 Inhibitory Activities to Carrageenin-Induced Paw Edema of Rat
Procedure: Inhibitory Activity on Carrageenin-Induced Paw-Edema of Rat
Namely, male LEW/Crj rats (6-week-old, 140-170 g weight) fasted for 24 hours were used (7 to 8 rats per group).
A solution (0.1 ml) containing 1% λ-carrageenin (PICININ-A, Zushikagaku) was injected into the subplantar tissue of the right hind paw of each rat orally administered a test compound before 1 hour, to induce edema. The paw volume was calculated plethysmographically before and after the injection at an interval of 1 hour until 5 hours later. The inhibitory rate of the drug-administered group was calculated, with the vehicle group as the reference, to determine the efficacy of the test compounds by Dunnett-t assay. The anti-edema activity was indicated as ED30 calculated, by regression analysis method, based on the inhibitory rate shown 3 or 4 hours later after the administration of carrageenin.

[5] = tested on: Tunica Mucosa Ventriculi of rat (stomach); experiment: Inducing Activities on Injury at Tunica Mucosa of Rat (stomach); format: in vivo, rat (LEW/Crj); settings: oral, 6 hours
Procedure: Inducing Activities on Injury at Tunica Mucosa of Rat
Sixs LEW/Crj male rats (six week old, 140-160 g weight) were used per one group. A drug was orally administered to each rat fasted for 24 hours, then six hours later each rat were bled to death under anesthesia of ether. From each rat was taken out the stomach, in which about 6 ml of physiological saline was filled, then the stomach was steeped in 1% formalin solution for 15 min. The stomach was incised along with curvatura ventriculi major and observed with an actual-microscope to see the injured condition thereof, then the number of rats injuried at stomach and the length of hemorrhage macula were determined. The degree of the injury was shown as Lesion index (mm) which was the cumulative value of the length of hemorrhage macula in each administered group.

[6] = THP-1 cells, LPS 10 μg/ml, 24 hours, RIA of IL-1 β

Compound | IC50 [1, 6] | IC50 [2] | IC50 [3] | ED30 [4] | Injury at Tunica Mucosa Ventriculi, Degree of Injury (Lesion index) ([5]; 100 mg/kg) | Injury at Tunica Mucosa Ventriculi, Number Occurrence/Sample ([5]; 100 mg/kg) | Injury at Tunica Mucosa Ventriculi, Degree of Injury (Lesion index) ([5]; 200 mg/kg) | Injury at Tunica Mucosa Ventriculi, Number Occurrence/Sample ([5]; 200 mg/kg) | Injury at Tunica Mucosa Ventriculi, Degree of Injury (Lesion index) ([5]; 400 mg/kg) | Injury at Tunica Mucosa Ventriculi, Number Occurrence/Sample ([5]; 400 mg/kg) | Injury at Tunica Mucosa Ventriculi, Degree of Injury (Lesion index) ([5]; 10 mg/kg) | Injury at Tunica Mucosa Ventriculi, Number Occurrence/Sample ([5]; 10 mg/kg) | Injury at Tunica Mucosa Ventriculi, Degree of Injury (Lesion index) ([5]; 30 mg/kg) | Injury at Tunica Mucosa Ventriculi, Number Occurrence/Sample ([5]; 30 mg/kg) | IC50 ([1]; THP-1, 24 h) | Injury at Tunica Mucosa Ventriculi, Degree of Injury (Lesion index) ([5]; 3 mg/kg) | Injury at Tunica Mucosa Ventriculi, Number Occurrence/Sample ([5]; 3 mg/kg)
CC(C)(C)c1cc(C=C2CCN(C(=O)NO)C2=O)cc(C(C)(C)C)c1O [Ia-4, N-(N-hydroxycarbamoyl)-3-(3,5-di-tert-butyl-4-hydroxybenzylidene)pyrrolidin-2-one] | 25 µM | 3 µM | 0.2 µM | 16 mg/kg | 0 ± 0 mm | 0/8 | 0 ± 0 mm | 0/8 | 0.2 ± 0.1 mm | 3/8 |  |  |  |  |  |  | 
CC(C)(C)c1cc(C=C2CCN(C(N)=O)C2=O)cc(C(C)(C)C)c1O [Ia-1, N-carbamoyl-3-(3,5-di-tert-butyl-4-hydroxybenzylidene)pyrrolidin-2-one] | 20 µM | 4 µM | 0.4 µM | 18 mg/kg | 0 ± 0 mm | 0/6 | 0 ± 0 mm | 0/6 |  |  | 0 ± 0 mm | 0/6 |  |  |  |  | 
CN(O)C(=O)N1CCC(=Cc2cc(C(C)(C)C)c(O)c(C(C)(C)C)c2)C1=O [Ia-6, N-(N-hydroxy-N-methylcarbamoyl)-3-(3,5-di-tert-butyl-4-hydroxybenzylidene)pyrrolidin-2-one] | 34 µM | 3 µM | 0.009 µM | 9 mg/kg | 1.0 ± 0.5 mm | 3/6 |  |  |  |  | 0 ± 0 mm | 0/6 | 0.6 ± 0.5 mm | 3/6 |  |  | 
CON1CCC(=Cc2cc(C(C)(C)C)c(O)c(C(C)(C)C)c2)C1=O [Reference Compound, N-methoxy-3-(3,5-di-tert-butyl-4-hydroxybenzylidene)-2-pyrrolidone, reference compound] |  | 6 µM | 0.005 µM | 3 mg/kg |  |  |  |  |  |  | 7.2 ± 1.2 mm | 6/6 | 11.2 ± 2.2 mm | 6/6 | > 100 µM | 4.5 ± 1.3 mm | 6/6
